Data set [1] has as its target 52 kDa human pancreatic triglyceride lipage. The conditions noted are these: literature; cited from earlier work.
The target in data set [2] is cholesterol esterase from rat. The note with it: Borgstrom 1988; water soluble artificial and colorimetric substrates; cited from earlier work.
Data set [3] addresses human 100 kDa cholesterol esterase. Put plainly: Inhibition of triolein hydrolysis by human 100 kDa cholesterol esterase. In kind it is biochemical. The note with it: Table 3; triolein as substrate. Here is the method:
Alginic acid from Macrocystis pyrifera (kelp) was dissolved in water at a concentration of 1 mg/ml. This stock solution was used to prepare various polysaccharide concentrations down to 10^-5 mg/ml. Human pancreatic cholesterol esterase was purified as described by Bosner et al., Proc. Nat'l, Acad, Sci., 85, 7438 (1988). To measure cholesterol esterase inhibition by alginic acid, 50 μl of cholesterol esterase (10 μg/ml), 75 μl of phosphatidylcholine vesicles containing cholesteryl ^14 C-oleate (1 mM 2,000 CPM/nmole), 25 μl of 100 mM taurocholate, 120 μl of 150 mM Tris, pH 7.5 and 30 μl of test alginic acid solution were incubated at 37° C. for fifteen minutes. The assay was quenched by placing the reaction vessels in a 4° C. ice bath and by adding 0.6 ml of 0.3 N NaOH and 3 ml of benzene/chloroform/methanol (1.0/1.2/0.5). The quenched reactions were vortexed for 30 seconds, centrifuged at 3,000 g for 15 minutes and 1 ml of the upper aqueous phase was added to 7 ml of Aquasol-2 (DuPont) with 0.025 ml of 6 N HCl. These mixtures were vortexed for one minute and counted for ^14 C-oleate. The counts were compared to a sample which contained cholesterol esterase but no alginic acid to determine the percentage of inhibition.
(The same assay procedure was used as described in Part I, only triolein was used instead of cholesteryl oleate.) As shown in the table below, the IC50 for inhibition of triolein hydrolysis is nearly the same as that for cholesteryl oleate hydrolysis.

The target of data set [4] is T1, Human pancreatic cholesterol esterase (Homo sapiens, UniProt P19835).
T1 construct: Human pancreatic cholesterol esterase was purified as described by Bosner et al; from tissue; host or cells: human pancreas (purified to homogeneity)
T1 sequence (P19835 21-753): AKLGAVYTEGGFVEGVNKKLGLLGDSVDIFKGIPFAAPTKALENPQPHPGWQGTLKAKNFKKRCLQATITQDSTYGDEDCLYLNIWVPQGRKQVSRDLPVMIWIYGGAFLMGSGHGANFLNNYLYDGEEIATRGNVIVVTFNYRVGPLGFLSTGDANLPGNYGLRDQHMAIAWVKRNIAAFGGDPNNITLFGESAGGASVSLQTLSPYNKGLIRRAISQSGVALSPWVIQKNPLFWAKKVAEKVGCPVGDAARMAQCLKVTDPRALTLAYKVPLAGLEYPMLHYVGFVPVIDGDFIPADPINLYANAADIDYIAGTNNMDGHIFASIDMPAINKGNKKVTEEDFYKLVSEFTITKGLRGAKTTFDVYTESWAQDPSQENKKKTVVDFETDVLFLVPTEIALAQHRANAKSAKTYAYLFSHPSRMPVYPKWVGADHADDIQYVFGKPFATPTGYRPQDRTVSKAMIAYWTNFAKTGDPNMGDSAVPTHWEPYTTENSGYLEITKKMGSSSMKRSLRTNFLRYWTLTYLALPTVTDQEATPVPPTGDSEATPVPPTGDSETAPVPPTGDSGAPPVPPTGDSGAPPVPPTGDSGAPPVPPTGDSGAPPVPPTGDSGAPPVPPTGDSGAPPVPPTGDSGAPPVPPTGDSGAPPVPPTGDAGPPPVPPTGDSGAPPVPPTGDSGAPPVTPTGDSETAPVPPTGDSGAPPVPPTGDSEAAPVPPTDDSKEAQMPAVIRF
Put plainly: Inhibition of human pancreatic cholesterol esterase, cholesteryl 14C-oleate hydrolysis. In kind it is biochemical.
Protocol: Human pancreatic cholesterol esterase was purified as described by Bosner et al., Proc, Natl. Acad. Sci,, 85, 7438 (1988). To measure pancreatic cholesterol esterase inhibition by sulfated agar, 50 μl of pancreatic cholesterol esterase (10 μg/ml), 75 μl of phosphatidylcholine vesicles containing cholesteryl ^14 C-oleate (1 mM 2,000 CPM/nmole), 25 μl of 100 mM taurocholate, 120 μl of 150 mM Tris, pH 7.5 and 30 μl of test sulfated agar solution were incubated at 37° C. for fifteen minutes. The assay was quenched by placing the reaction vessels in a 4° C. ice bath and by adding 0.6 ml of 0.3 N NaOH and 3 ml of benzene/chloroform/methanol (1.0/1.2/0.5). The quenched reactions were vortexed for 30 seconds, centrifuged at 3,000 g for 15 minutes and 1 ml of the upper aqueous phase was added to 7 ml of Aquasol-2 (DuPont) with 0.025 ml of 6 N HCl. These mixtures were vortexed for one minute and counted for ^14 C-oleate. The counts were compared to a sample which contained cholesterol esterase but no sulfated agar to determine the percentage of inhibition.

For data set [5], the system named is cholesterol esterase. The data set can be described thus: Inhibition of cholesterol oleate hydrolysis by pig pancreatic cholesterol esterase. In kind it is biochemical. The note with it: enzyme from pig pancreas. The text has this:
(§1) These sulfated polysaccharides are also inhibitors of animal pancreatic cholesterol esterase.

In data set [6] the test system is cholesterol esterase. Put plainly: Inhibition of cholesterol oleate hydrolysis by rabbit pancreatic cholesterol esterase. Type of data set: biochemical. The note with it: enzyme from rabbit pancreas.
Text: as §1

The test system of data set [7] is Colonic adenocarcinoma cells (CaCo-2). Put plainly: Cholesterol esterase catalyzed cholesterol uptake by CaCo-2 cells. In kind it is cell-based. The conditions noted are these: CaCo-2, bovine 72 kDa cholesterol esterase. Here is the method:
Colonic adenocarcinoma cells (CaCo-2, American Type Culture Collection) were grown to a density of 2×10^6 cells on […] coverslips in Dulbecco's Moditied Eagle's Medium containing 10% (v/v) lipoprotein depleted serum. The coverslips were washed with phosphate buffered saline (PBS) and transferred to 35 mm wells containing 1.0 ml PBS, 2 mM taurocholate and 1% bovine serum albumin. The cells were then incubated at 37° C. with 0.01 uCi of ^3 H cholesterol and 0.01 uCi of ^14 C-cholesteryl oleate, which were embedded in phosphatidylcholine vesicles. The control wells received no cholesterol esterase while the experimental set received bovine 72 kDa cholesterol esterase. At various incubation times the coverslips were removed, washed three times with PBS, and the cells were collected by scraping and washing with 250 mM tris glycine buffer (pH 8.8) containing 0.1% SDS. The cells were collected by centrifugation and the pellet was heated at 100° C. for five minutes and then sonicated for ten minutes. The uptake of cholesterol, either from free sterol or from cholesteryl oleate, was determined by scintillation counting for ^3 H or ^14 C, respectively.

Data set [8] is described as follows: Serum radiolabeled cholesterol in rabbit fed cellulose sulfate chow. The conditions noted are these: chow with 0.5% cellulose sulfate. In kind it is in vivo, New Zealand White rabbit. The text has this: A New Zealand White rabbit was maintained on regular rabbit chow. Two days before the experiment began the animal was fed chow to which cellulose sulfate had been added to give a final concentration of 0.5%. After 12 hrs. on regular chow then, the experiment began with the administration of ^14 C-cholesteryl oleate as described above. The animal was then allowed to eat and drink regular chow in a normal manner. Blood samples were withdrawn from an ear vein and the radiolabeled cholesterol measured by scintillation counting. […] In contrast, in the control animal, label appears only two hours after its administration.

Data set [9] can be described thus: In vivo cholesterol uptake in cholesteryl oleate fed rabbit, nasogastric dosing. The protocol: Inhibition of cholesterol uptake from either free cholesterol or from cholesteryl oleate was examined in vivo using cellulose sulfate. A rabbit which had been fed cholesteryl oleate for six weeks was fasted for twelve hours and a nasogastric cube was inserted into its stomach. Five ml of a cellulose sulfate solution (100 mg/ml) in Tris buffer were added followed by 10 ml of 20 uCi of ^3 H cholesterol incorporated in phosphatidylcholine vesicles and 10 ml of 20 uCi of ^14 C cholesteryl oleate. The nasogastric tube was then flushed with an additional 5 ml of cellulose sulfate solution (100 mg/ml). After the tube was removed, blood was drawn from an ear vein as a function of time and 100 μl of plasma was counted for ^14 C and ^3 H. As shown, cellulose sulfate inhibited by 85% the uptake of either free cholesterol or cholesterol derived from cholesteryl oleate (FIG. 5).

In data set [10] the test system is cholesterol esterase. Put plainly: Inhibition of cholesterol oleate hydrolysis by rat pancreatic cholesterol esterase. In kind it is biochemical. The note with it: enzyme from rat pancreas.
Text: as §1

Data set [11] concerns cholesterol esterase. The data set can be described thus: Stability under baking conditions: cholesterol esterase inhibition by muffin supernatant. The conditions noted are these: retention of inhibitory activity. The protocol: The sulfated polysaccharides described here retain their inhibitory activity for prolonged periods at elevated temperatures. […] For example, 109 mg of cellulose sulfate were added to 198 gm (7 oz) of corn muffin mix (Gold Medal,) and the solid ingredients were thoroughly mixed together. After the addition of one egg and one third cup milk, the muffin mix was stirred fifteen times. The mixture was poured into nine muffin tins and baked for fifteen minutes in a 400° oven. The next day one muffin was broken up, added to 100 ml of water and allowed to stand for fifteen minutes. The mixture was centrifuged and the clear supernatant was assayed for the presence of cholesterol esterase inhibition. The IC50 of this solution was achieved when this solution was diluted 10^3 -10^4 times.

Data set [12] addresses cholesterol esterase. Put plainly: Inhibition of cholesterol oleate hydrolysis by cow pancreatic cholesterol esterase. Type of data set: biochemical. The note with it: enzyme from the cow.
Text: as §1

The test system of data set [13] is cholesterol esterase. The note with it: Bosner et al., 1988; cited from earlier work.
The mark [14] stands for this setting: Table 3, cholesteryl oleate as substrate, read-out: IC50 (nM) Cholesteryl Oleate.
Setting [15] is: cholesteryl oleate hydrolysis, molar value based on assumed polymer molecular weight, read-out: IC50.

Like-named read-outs stand apart in the source and are kept apart here.

The Ki is a dissociation constant, usually derived from enzyme kinetics or from competition with a known ligand. A word on the IC50: it is the concentration that gives 50% inhibition.

For `CCCCCCCCCCC[C@@H](C[C@@H]1OC(=O)[C@H]1CCCCCC)OC(=O)[C@H](CC(C)C)NC=O` [tetrahydrolipstatin], the figures for the Ki in data set [1] and in [2] were 100 nM and 100000 nM, respectively.
As to Alginic acid [reference compound], the IC50 is 42 nM in data set [3]; 20 nM in data set [4] (Table 1, read-out: IC50); 20 nM in data set [4] (setting [14]); 4 µg/mL in data set [4] (cholesteryl oleate hydrolysis); 20 nM in [4] (setting [15]). The “Enhancement Factor” value in [4] (Table 1, relative to alginic acid) was 1.0.
For Cellulose Sulfate, the “inhibition of cholesterol oleate hydrolysis” value with cholesterol esterase [5], in the data set with cholesterol esterase [6] and in the data set with cholesterol esterase [10] was “inhibits” throughout. In addition, in data set [7] (FIG. 4a), the “uptake of cholesterol derived from cholesteryl oleate by the cells” value is recorded as “markedly inhibits cholesterol uptake”. In addition, in data set [7] (FIG. 4b), the “uptake of free cholesterol by the cells” value is listed as “markedly inhibits cholesterol uptake”. Further, the “time until cholesterol appears in serum after administration of the label” value in [8] is reported as “four”. In [8] (14C-cholesteryl oleate label, FIG. 7), the “reduction of level of serum cholesterol compared to control rabbit” value is recorded as 50%. In addition, in [9] (rabbit, nasogastric cellulose sulfate 100 mg/ml, 3H cholesterol in plasma, FIG. 5), the “inhibition of uptake of free cholesterol” value is recorded as 85%. For the same molecule, the “inhibition of uptake of cholesterol derived from cholesteryl oleate” value in [9] (rabbit, nasogastric cellulose sulfate 100 mg/ml, 14C in plasma, FIG. 5) worked out at 85%. For the same molecule, the “absorption of free cholesterol” value in data set [9] (rabbits) was “decreases absorption of free cholesterol”. Further, the “decrease of cholesterol absorption” value in data set [9] (rabbits fed cholesterol oleate) is recorded as “over 70%”. The “stability at elevated temperatures / baking conditions” value in the data set on cholesterol esterase [11] is listed as “stable under baking conditions”. Also, the Ki on cholesterol esterase [12] is 100 nM. Moreover, the IC50 came to 0.06 nM in [3]; 0.02 nM in data set [4] (Table 2, read-out: IC50); 0.02 nM in data set [4] (setting [14]); 0.02 nM in [4] (setting [15]).
For the molecule Chitin Sulfate, the IC50 was 0.35 nM in data set [3]; 0.16 nM in data set [4] (Table 2, read-out: IC50); 0.3 nM in [4] (setting [14]); 0.3 nM in [4] (setting [15]).
For Chitosan Sulfate, the IC50 in data set [3] is 0.85 nM; in data set [4] (Table 2, read-out: IC50), 0.16 nM; in [4] (setting [14]), 0.3 nM; in [4] (setting [15]), 0.3 nM.
Take chondroitan sulfate: the “interaction with cholesterol esterase” value with cholesterol esterase [13] is reported as “does not interact with cholesterol esterase”.
For the molecule “pectin [native, unsulfated pectin, reference compound]”, the “inhibition of cholesterol esterase (in words)” value in [4] (hydrolysis of cholesterol esters) was “does not inhibit cholesterol esterase”.

The values above are taken from patent publication US5616570A, “Use of non-absorbable synthetic sulfated polysaccharides to decrease cholesterol absorbtion” (priority 1994, dated 1997).
